Measurements: patent US5075336A, “Alkaline earth metal salts of oxa polyacid compounds” (Adir et Compagnie, priority 1990, dated 1991)
Like-named read-outs stand apart in the source and are kept apart here.

How the values were obtained:
[1] = test system: Demi-calvarias of newly born mice; assay: Osseous formation in tissue culture: incorporation of tritiated proline (T/C ratio); format: cell-based; details: 48 h, n = 7
Description: (§1) The activity on osseous formation and the anti-resorbing activity of compounds potentially active as medicaments may be detected and measured in vitro in tissue culture.
Demi-calvarias of newly born mice (1-2 days) are cultured on gratings in BGJ medium containing tritiated proline. The explants are cultured for 48 h in the presence of the tested compound at 37° C. and at the end of the culture the bones are washed in trichloroacetic acid containing non-radioactive proline in order to remove the ^3 H-proline which has not been incorporated.
After washing and dissolving in sodium hydroxide solution, the incorporation of the labler in the bone and the amount of total proteins are counted. The effect of the product on the incorporation of proline in the bone in culture is thus evaluated.
Each treated demi-calvaria is compared with the untreated demi-calvaria which serves as control and the T/C ratio is calculated. [formula]
A stimulation of the osseous formation is reflected by a higher incorporation of tritiated proline in the treated demi-calvaria than in the control (T/C>1). An inhibition of the osseous formation is shown by a T/C ratio of <1.
The compounds were tested at concentrations of 10^-4, 10^-6, 10^-8, 10^-10 and 10^-12 M.
6 to 9 experiments were carried out per point.

[2] = test system: forearms of rat foetuses (PTH-stimulated osseous resorption); assay: Osseous resorption in tissue culture: 45Ca salted out from PTH-stimulated foetal forearm bones; format: cell-based, rats
Description: as §1
18-day pregnant rats are injected with 150 μcuries of ^45 Ca subcutaneously.
On the 19th day the rats are sacrificed and the foetuses are removed, immersed in a bath of alcohol at 70° are then two baths of PBS and killed by cutting off the head. The two forearms are dissected, the skin, the tendons and the muscles are removed and the cartilaginous extremities are cut off. The forearms are cultured in 24-well culture boxes in the presence of 1.5 ml of MEM for 24 hours for equilibration. At the end of said 24 hours, the medium is replaced by 1.5 ml of BGJB supplemented with 10% of foetal calf serum. The resorption is stimulated in all of the samples by […] of PTH. The bones are cultured for two successive periods of 72 hours each and the culture media are removed to determine the amount of ^45 Ca salted out at the end of each of these two periods. At the end of the second period (7 days after the start of culture), the bones are immersed for 24 hours in 1.5 ml of 10% formic acid and the ^45 Ca salted out from the bones is also determined in a scintillation counter.
The results are expressed for each of the two culture periods by the treated/control ratio calculated in the following way: [formula]
The compounds were tested on this model at concentrations of 5×10^-3 and 5×10^-4 M.

[3] = Bioavailability (Sr2+ by atomic absorption spectrometry); details: rat, in vivo, po, 50 mg/kg; male wistar rats, 50 mg Sr2+ per kg, gelatin mini capsules; compared with strontium chloride; read-out: Absolute bioavailability
Description: the determination was carried out on groups of 5 male wistar rats
administration is in a dose of 50 mg of Sr^2+ per kg in the form of gelatin mini capsules,
the determination was carried out by atomic absorption spectrometry using flame ionisation for the concentrations higher than 1 μg/ml and furnace ionisation for the concentrations lower than 1 μg/ml

[4] = PTH alone (reference of the ratio)

CCOC(OC(CO)C(=O)O)C(=O)O (stereo not drawn) [Example 1, Strontium 2-ethoxy-4-hydroxymethyl-3-oxa pentanedioate]
Osseous formation, T/C ratio, maximum value ([1]; 10^-4 M): 1.8034
Osseous formation, T/C ratio, minimum value ([1]; 10^-4 M): 1.2095
Osseous formation, T/C ratio, maximum value ([1]; 10^-6 M): 1.4652
Osseous formation, T/C ratio, minimum value ([1]; 10^-6 M): 0.8433
Osseous formation, T/C ratio, maximum value ([1]; 10^-8 M): 1.2092
Osseous formation, T/C ratio, minimum value ([1]; 10^-8 M): 0.8511
Osseous formation, T/C ratio, maximum value ([1]; 10^-10 M): 1.0974
Osseous formation, T/C ratio, minimum value ([1]; 10^-10 M): 0.8467
Osseous formation, T/C ratio, maximum value ([1]; 10^-12 M): 1.2822
Osseous formation, T/C ratio, minimum value ([1]; 10^-12 M): 0.8988
activity at 100 µM ([1]; Mus musculus, 10^-4 M, 37° C., marked **): 150%
activity at 1 µM ([1]; Mus musculus, 10^-6 M, 37° C.): 107%
activity at 0.01 µM ([1]; Mus musculus, 10^-8 M, 37° C.): 103%
activity at 0.0001 µM ([1]; Mus musculus, 10^-10 M, 37° C.): 97.2%
activity at 1 pM ([1]; Mus musculus, 10^-12 M, 37° C.): 106%
Level of osseous resorption (%), D1-D4 ([2]; 5 10^-3 (M), PTH-stimulated, 9 determinations per point, (c) different from PTH at p < 0.05): 6.4 ± 0.9%
Level of osseous resorption (%), D1-D4 ([2]; 5 10^-4 (M), PTH-stimulated, 9 determinations per point): 14.5 ± 4.1%
activity at 5000 µM ([2]; Rattus norvegicus, 5 10^-3 (M), PTH-stimulated, read-out: Osseous resorption T/C, D1-D4): 45%
activity at 5000 µM ([2]; Rattus norvegicus, 5 10^-3 (M), PTH-stimulated, read-out: Osseous resorption T/C, D4-D7): 6%
activity at 500 µM ([2]; Rattus norvegicus, 5 10^-4 (M), PTH-stimulated, read-out: Osseous resorption T/C, D1-D4): 101%
activity at 500 µM ([2]; Rattus norvegicus, 5 10^-4 (M), PTH-stimulated, read-out: Osseous resorption T/C, D4-D7): 84%
minimal effective concentration ([2]; Rattus norvegicus, in vitro, PTH-stimulated, read-out: Concentration from which anti-resorbing activity is statistically significant): 500 µM
bioavailability [3]: 60.5%

B1: PTH: PTH, used to stimulate the resorption in all of the samples (protein, UniProt P01270 32-115, looked up)
Parathyroid hormone: SVSEIQLMHNLGKHLNSMERVEWLRKKLQDVHNFVALGAPLAPRDAGSQRPRKKEDNVLVESHEKSLGEADKADVNVLTKAKSQ
modifications: Parathyroid hormone
notes: PTH, used to stimulate the resorption in all of the samples
Osseous resorption T/C, D1-D4 [2, 4]: 1.00
Osseous resorption T/C, D4-D7 [2, 4]: 1.00
Level of osseous resorption (%), D1-D4 ([2]; PTH alone, 9 determinations per point, (a) different from control at p < 0.05): 14.3 ± 3.4%
Level of osseous resorption (%), D1-D7 ([2]; PTH alone, 9 determinations per point, (b) different from control at p < 0.0001): 37.0 ± 7.6%
